Measurements published in PMC6199744, “Development of Chemical Proteomics for the Folateome and Analysis of the Kinetoplastid Folateome” (ACS Infectious Diseases, 2018).

Test system: L. major lysate proteins
Assay: Multitargeted bead mixture chemoproteomics, single concentration competition, proteome-wide
Format: binding
Settings: for fold change / fold change relative to vehicle control: vehicle control = 1; for fold change relative to vehicle control: competition with free ligand

## Nc1nc2cccc(-c3ccccc3)c2n1Cc1ccc(Cl)c(Cl)c1 [compound 3]
Protein LMJF.22.0730 HY[…], CONSERVED
  fold change vs vehicle control: 1.03
Protein LMJF.22.1460 I/6 AUTOANTIGEN-LIKE PROTEIN
  fold change: 1.02
Protein LMJF.22.1540 ALANYL-TRNA SYNTHETASE, PUTATIVE
  fold change vs vehicle control: 0.95
Protein LMJF.23.0370 […] OXIDASE SUBUNIT 10, PUTATIVE
  fold change vs vehicle control: 1.06
Protein LMJF.23.0830 NA/H ANTIPORTER-LIKE PROTEIN
  fold change: 1.19
Protein LMJF.23.1020 HY[…], UNKNOWN FUNCTION
  fold change: 0.96
Protein LMJF.23.1220 T-COMPLEX PROTEIN 1, GAMMA SUBUNIT, PUTATIVE
  fold change: 1.01
Protein LMJF.24.0140 ANKYRIN/TPR REPEAT PROTEIN
  fold change vs vehicle control: 0.99
Protein LMJF.24.0280 DYNEIN INTERMEDIATE-CHAIN-LIKE PROTEIN
  fold change: 0.96
Protein LMJF.24.0770 MALIC ENZYME, PUTATIVE
  fold change: 0.99
Protein LMJF.24.1510 IGE-DEPENDENT HISTAMINE-RELEASING FACTOR, PUTATIVE
  fold change relative to vehicle control: 1.23
Protein LMJF.24.1630, SUCCINATE DEHYDROGENASE FLAVOPROTEIN, PUTATIVE
  fold change vs vehicle control: 0.9
Protein LMJF.24.1840 LYSOPHOSPHOLIPASE, PUTATIVE
  fold change vs vehicle control: 1.09
Protein LMJF.24.2060 TRANSKETOLASE
  fold change relative to vehicle control: 1.1
Protein LMJF.24.2250 FATTY-ACID DESATURASE, PUTATIVE
  fold change: 0.99
Protein LMJF.25.0120 ELECTRON TRANSFER FLAVOPROTEIN, PUTATIVE
  fold change vs vehicle control: 0.93
Protein LMJF.25.0260 DYNEIN LIGHT CHAIN 1, CYTOPLASMIC, PUTATIVE
  fold change vs vehicle control: 1.01
Protein LMJF.25.0910 C[…]
  fold change relative to vehicle control: 1.18
Protein LMJF.25.1180, ATPASE BETA SUBUNIT, PUTATIVE
  fold change vs vehicle control: 1.09
Protein LMJF.25.1610 HY[…], CONSERVED
  fold change: 0.9
Protein LMJF.25.1620 HY[…], CONSERVED
  fold change: 1.16
Protein LMJF.26.1240 HEAT SHOCK PROTEIN 70-RELATED PROTEIN
  fold change vs vehicle control: 0.94
Protein LMJF.26.1710 […] OXIDASE SUBUNIT V, PUTATIVE
  fold change vs vehicle control: 1.08
Protein LMJF.26.1960 HY[…], CONSERVED
  fold change vs vehicle control: 0.96
Protein LMJF.26.2000 HY[…], CONSERVED
  fold change vs vehicle control: 1.09
Protein LMJF.27.0420 RIBOKINASE, PUTATIVE
  fold change vs vehicle control: 1.13
Protein LMJF.27.1060 CYSTEINE DESULFURASE, PUTATIVE
  fold change vs vehicle control: 1.05
Protein LMJF.27.1310 ARGINYL-TRNA SYNTHETASE, PUTATIVE
  fold change: 0.9
Protein LMJF.27.2400 HEAT SHOCK PROTEIN DNAJ, PUTATIVE
  fold change vs vehicle control: 0.99
Protein LMJF.28.0110 […] 3 SUBUNIT, PUTATIVE
  fold change vs vehicle control: 0.99
Protein LMJF.28.0930 HY[…], CONSERVED
  fold change vs vehicle control: 1.07
Protein LMJF.28.0950 HY[…], CONSERVED
  fold change vs vehicle control: 1.01
Protein LMJF.28.0980 P27 PROTEIN, PUTATIVE
  fold change vs vehicle control: 1.09
Protein LMJF.28.1950 X-PRO, DIPEPTIDYL-PEPTIDASE,SERINE PEPTIDASE, CLAN SC, FAMILY S15, PUTATIVE
  fold change vs vehicle control: 1.06
Protein LMJF.28.2770 HEAT-SHOCK PROTEIN HSP70, PUTATIVE
  fold change relative to vehicle control: 0.99
Protein LMJF.29.0060 TRYPTOPHANYL-TRNA SYNTHETASE, PUTATIVE
  fold change: 1.05
Protein LMJF.29.0820 CYSTEINE PEPTIDASE C (CPC)
  fold change: 0.91
Protein LMJF.29.0850 HIGH MOBILITY GROUP PROTEIN HOMOLOG TDP-1, PUTATIVE
  fold change relative to vehicle control: 1.27
Protein LMJF.29.1160 TRYPAREDOXIN
  fold change vs vehicle control: 0.99
Protein LMJF.29.1760 PAR[…] PROTEIN 1D, PUTATIVE
  fold change: 0.75
Protein LMJF.29.1780 D[…] PROTEIN, PUTATIVE
  fold change vs vehicle control: 1.05
Protein LMJF.29.2240 AMINOPEPTIDASE, PUTATIVE
  fold change vs vehicle control: 1.03
Protein LMJF.29.2310 ENOYL-COA HYDRATASE/ISOMERASE-LIKE PROTEIN
  fold change: 0.98
Protein LMJF.29.2860 40S RIBOSOMAL PROTEIN S19-LIKE PROTEIN
  fold change: 1.34
Protein LMJF.30.0850 SURFACE PROTEIN AMASTIN, PUTATIVE
  fold change vs vehicle control: 1.12
Protein LMJF.30.1250 PYRIDOXAL KINASE, PUTATIVE
  fold change: 0.82
Protein LMJF.30.1940 SUCCINYL-COA:3-KETOACID-COENZYME A TRANSFERASE- LIKE PROTEIN
  fold change: 1.02
Protein LMJF.30.3190 3-HYDROXY-3-METHYLGLUTARYL-COA REDUCTASE
  fold change vs vehicle control: 0.77
Protein LMJF.30.3520 S-ADENOSYL[…]
  fold change vs vehicle control: 1.03
Protein LMJF.31.0440 CYTOSKELETON-[…] CAP5 5, PUTATIVE
  fold change vs vehicle control: 0.97
Protein LMJF.31.1130 N-ACYL-L-AMINO ACID AMIDOHYDROLASE, PUTATIVE
  fold change: 0.9
Protein LMJF.31.1640 THIOLASE PROTEIN-LIKE PROTEIN
  fold change vs vehicle control: 1.31
Protein LMJF.31.1800 AMINO ACID PERMEASE
  fold change: 0.96
Protein LMJF.31.2250 3,2-TRANS-ENOYL-COA ISOMERASE, MIT[…], PUTATIVE
  fold change: 1
Protein LMJF.31.2790 ADP-RI[…], PUTATIVE
  fold change vs vehicle control: 1.03
Protein LMJF.31.3130 […]-COA CARBOXYLASE BIOTINYLATED […]-LIKE PROTEIN
  fold change: 0.99
Protein LMJF.32.0010 HY[…], CONSERVED
  fold change: 0.78
Protein LMJF.32.0400 ATP-DEPENDENT RNA HELICASE, PUTATIVE
  fold change vs vehicle control: 1.02
Protein LMJF.32.0520 PROFILIN, PUTATIVE
  fold change vs vehicle control: 1.17
Protein LMJF.32.1000 […]-COMPLEX PROTEIN, PUTATIVE
  fold change: 0.92
Protein LMJF.32.3010 HY[…], CONSERVED,LEUCINE-RICH REPEAT PROTEIN, PUTATIVE
  fold change vs vehicle control: 1.47
Protein LMJF.32.3870 MYOSIN XXI
  fold change vs vehicle control: 0.97
Protein LMJF.33.0890, HY[…], CONSERVED
  fold change vs vehicle control: 1.03
Protein LMJF.33.1070 HY[…], UNKNOWN FUNCTION
  fold change vs vehicle control: 1.02
Protein LMJF.33.1330 CYSTEINE CONJUGATE BETA-LYASE, AMINOTRANSFERASE- LIKE PROTEIN
  fold change: 1.06
Protein LMJF.33.1610 PEPTIDASE M20/M25/M40, PUTATIVE
  fold change: 0.91
Protein LMJF.33.1630 CYCLOPHILIN 4, PUTATIVE
  fold change relative to vehicle control: 0.93
Protein LMJF.33.2300 UDP-GLC 4'-EPIMERASE, PUTATIVE
  fold change vs vehicle control: 0.98
Protein LMJF.33.2390 HEAT SHOCK PROTEIN, PUTATIVE
  fold change vs vehicle control: 0.99
Protein LMJF.33.2410 HY[…], CONSERVED
  fold change: 1.06
Protein LMJF.33.3150 40S RIBOSOMAL PROTEIN S13, PUTATIVE
  fold change: 1.18
Protein LMJF.34.3500 RUVB-LIKE 1 DNA HELICASE, PUTATIVE
  fold change: 1.19
Protein LMJF.34.3670 VACUOLAR ATP SYNTHASE CATALYTIC SUBUNIT A, PUTATIVE
  fold change: 0.9
Protein LMJF.34.3740 SERINE PALMITOYLTRANSFERASE-LIKE PROTEIN
  fold change: 0.95
Protein LMJF.34.4120 HY[…], CONSERVED
  fold change: 0.82
Protein LMJF.34.4370 20S […] 7 SUBUNIT, (PUTATIVE)
  fold change vs vehicle control: 1.2
Protein LMJF.35.0370 ATP-DEPENDENT DEAD-BOX RNA HELICASE, PUTATIVE
  fold change: 1.01
Protein LMJF.35.1380, MIT[…], BETA SUBUNIT, PUTATIVE
  fold change vs vehicle control: 1.16
Protein LMJF.35.1410 THREONYL-TRNA SYNTHETASE, PUTATIVE
  fold change vs vehicle control: 1.01
Protein LMJF.35.1720 CYCLOPHILIN 14, PUTATIVE
  fold change vs vehicle control: 1.09
Protein LMJF.35.2500 HY[…], CONSERVED
  fold change: 1.26
Protein LMJF.35.2730 ACYL-COA DEHYDROGENASE, PUTATIVE
  fold change: 1.14
Protein LMJF.35.3010 […],TRYPANOTHIONE-DEPENDENT […]
  fold change relative to vehicle control: 0.92
Protein LMJF.35.3100 ATP-DEPENDENT RNA HELICASE, PUTATIVE
  fold change vs vehicle control: 1.01
Protein LMJF.35.3340 6-phosphogluconate dehydrogenase
  fold change vs vehicle control: 1.11
Protein LMJF.35.3700 GIM5A PROTEIN, PUTATIVE,[…] PROTEIN
  fold change: 0.85
Protein LMJF.35.3840, […] 2 SUBUNIT, PUTATIVE
  fold change vs vehicle control: 0.92
Protein LMJF.35.3860 T-COMPLEX PROTEIN 1, ETA SUBUNIT, PUTATIVE
  fold change vs vehicle control: 1
Protein LMJF.35.4550 HY[…], CONSERVED
  fold change: 1.56
Protein LMJF.35.4770 CYCLOPHILIN 40
  fold change: 0.89
Protein LMJF.35.4850 […] 1 SUBUNIT, PUTATIVE
  fold change: 0.85
Protein LMJF.35.4860 HY[…], CONSERVED
  fold change: 0.98
Protein LMJF.35.5330 ISOPENTENYL-D[…]-ISOMERASE, PUTATIVE,ISOMERASE, PUTATIVE
  fold change relative to vehicle control: 1.32
Protein LMJF.36.0180 […] 2
  fold change vs vehicle control: 1.05
Protein LMJF.36.0620 HY[…], CONSERVED
  fold change vs vehicle control: 1.06
Protein LMJF.36.0990 40S RIBOSOMAL PROTEIN S10, PUTATIVE
  fold change vs vehicle control: 1.12
Protein LMJF.36.2020 CHAPERONIN HSP60, MIT[…]
  fold change vs vehicle control: 0.88
Protein LMJF.36.3460 HY[…], CONSERVED
  fold change vs vehicle control: 1.04
Protein LMJF.36.3760 60S RIBOSOMAL PROTEIN L10A, PUTATIVE
  fold change: 1.19
Protein LMJF.36.3840 GLYCYL TRNA SYNTHETASE, PUTATIVE
  fold change vs vehicle control: 0.95
Protein LMJF.36.4170 OXIDOREDUCTASE, PUTATIVE
  fold change vs vehicle control: 0.93
Protein LMJF.36.5010 40S RIBOSOMAL PROTEIN SA, PUTATIVE
  fold change vs vehicle control: 1.04
Protein LMJF.36.5620 ISOLEUCYL-TRNA SYNTHETASE, PUTATIVE
  fold change vs vehicle control: 0.99
Protein LMJF.36.6430 PROTEIN TRANSPORT PROTEIN SEC23-LIKE PROTEIN
  fold change vs vehicle control: 1.04
Protein LMJF.36.6760 HY[…], CONSERVED
  fold change: 0.97
Protein LMJF.36.6910 T-COMPLEX PROTEIN 1, THETA SUBUNIT, PUTATIVE
  fold change vs vehicle control: 1
Protein LMJF.36.6940 disulfide isomerase PDI
  fold change vs vehicle control: 1.23
Protein LMJF.[…] […] EXOPOLYPHOSPHATASE, PUTATIVE
  fold change vs vehicle control: 0.81
